According to patent US20240139260A1, “MICROBIAL STRAIN COMPOSITIONS” (MICROBIAL DISCOVERY GROUP, LLC, priority 2022, published 2024):
Converted amounts (≈) assume the structure as drawn. Where two headings read alike, the source gives them in different places.

Experiments:
[1] = system: Bacillus strain BC1 (NRRL No. B-67744); experiment: Antibiotic resistance, phenotypic MICs of medical antibiotics; type: cell-based, Bacillus coagulans; settings: for MIC: Bacillus
[2] = system: Bacillus strain (NRRL No. B-68053); experiment: Antibiotic resistance, Minimum Inhibitory Concentrations (MICs) Against Medical Antibiotics; type: cell-based, Bacillus subtilis
Excerpt: (§1) The inventors have assessed resistance phenotypically. A bacterial strain is defined by EFSA as susceptible when its growth is inhibited at concentration of a specific antibiotic that is equal to or lower than the established cut-off value for that particular species. A bacterial strain is defined as resistant when it is able to grow at a concentration of a specific antibiotic that is higher than the established cut-off. We utilized both the EFSA and CLSI guidelines for determining susceptibility and resistance interpreted through their defined cut-off values.

[3] = system: Bacillus strain (NRRL No. B-68054); experiment: as above; type: cell-based, Bacillus subtilis
Excerpt: as §1, with “The inventors” for “We”

[4] = Bacillus, NRRLB68053, read-out: NRRL No. B-68053 ug/mL (triplicate), Minimum Inhibitory Concentration
[5] = Bacillus, NRRLB68054, read-out: NRRL No. B-68054 ug/mL (triplicate), Minimum Inhibitory Concentration
[6] = Bacillus, NRRLB68053; read-out: NRRL No. B-68053 ug/mL (triplicate), Minimum Inhibitory Concentration
[7] = NRRLB67744, MIC of the antibiotic against the strain, triplicate, read-out: NRRL No. B-67744 ug/ml (triplicate)
[8] = Bacillus, NRRLB68054; read-out: NRRL No. B-68054 ug/mL (triplicate), Minimum Inhibitory Concentration

| Compound | MIC [2, 6] [µg/mL] | MIC [1, 7] [µg/mL] | MIC [3, 8] [µg/mL] | also measured |
| --- | --- | --- | --- | --- |
| CN(C)c1cc(NC(=O)CNC(C)(C)C)c(O)c2c1C[C@H]1C[C@H]3[C@H](N(C)C)C(O)=C(C(N)=O)C(=O)[C@@]3(O)C(O)=C1C2=O [Tigecycline] |  |  |  | MIC ([1]; NRRLB67744, read-out: NRRL No. B-67744 ug/ml (triplicate)): 0.064 µg/mL (≈ 0.109 µM); MIC [2, 4]: 0.094 µg/mL (≈ 0.161 µM); MIC [3, 5]: 0.064 µg/mL (≈ 0.109 µM) |
| O=C(O)c1cn(C2CC2)c2cc(N3CCNCC3)c(F)cc2c1=O [Ciprofloxacin] | 0.94 (≈ 2.84 µM) |  |  |  |
| Gentamicin |  |  |  | NRRL No. B-67744 ug/ml (triplicate) ([1]; MIC of the antibiotic against the strain, triplicate): 0.023 µg/mL; NRRL No. B-68053 ug/mL (triplicate), Minimum Inhibitory Concentration ([2]; triplicate): 0.094 µg/mL; NRRL No. B-68054 ug/mL (triplicate), Minimum Inhibitory Concentration ([3]; triplicate): 0.125 µg/mL |
| CN[C@H](CC(C)C)C(=O)N[C@H]1C(=O)N[C@@H](CC(N)=O)C(=O)N[C@H]2C(=O)N[C@H]3C(=O)N[C@H](C(=O)N[C@H](C(=O)O)c4cc(O)cc(O)c4-c4cc3ccc4O)[C@H](O)c3ccc(c(Cl)c3)Oc3cc2cc(c3O[C@@H]2O[C@H](CO)[C@@H](O)[C@H](O)[C@H]2O[C@H]2C[C@](C)(N)[C@H](O)[C@H](C)O2)Oc2ccc(cc2Cl)[C@H]1O [Vancomycin] |  | 0.38 |  | MIC [2, 4]: 0.5 µg/mL (≈ 0.345 µM); MIC [3, 5]: 0.75 µg/mL (≈ 0.518 µM) |
| CO[C@H]1/C=C/O[C@@]2(C)Oc3c(C)c(O)c4c(O)c(c(/C=N/N5CCN(C)CC5)c(O)c4c3C2=O)NC(=O)/C(C)=C\C=C\[C@H](C)[C@H](O)[C@@H](C)[C@@H](O)[C@@H](C)[C@H](OC(C)=O)[C@@H]1C [Rifampin] | 0.25 (≈ 0.304 µM) | 0.25 | 0.5 (≈ 0.608 µM) |  |
| CC(=O)NC[C@H]1CN(c2ccc(N3CCOCC3)c(F)c2)C(=O)O1 [Linezolid] | 1 (≈ 2.96 µM) | 0.75 | 0.25 (≈ 0.741 µM) |  |
| CN(C)[C@@H]1C(O)=C(C(N)=O)C(=O)[C@@]2(O)C(O)=C3C(=O)c4c(O)cccc4[C@@](C)(O)[C@H]3C[C@@H]12 [Tetracycline] | 12 (≈ 27 µM) | 1.25 | 6 (≈ 13.5 µM) |  |
| CC[C@H]1OC(=O)[C@H](C)[C@@H](O[C@H]2C[C@@](C)(OC)[C@@H](O)[C@H](C)O2)[C@H](C)[C@@H](O[C@@H]2O[C@H](C)C[C@H](N(C)C)[C@H]2O)[C@](C)(O)C[C@@H](C)C(=O)[C@H](C)[C@@H](O)[C@]1(C)O [Erythromycin] | 0.064 (≈ 0.0872 µM) | 0.125 | 0.047 (≈ 0.064 µM) |  |
| [H]/N=C(/N)N[C@H]1[C@H](O)[C@@H](O)[C@H](O[C@@H]2O[C@@H](C)[C@](O)(C=O)[C@H]2O[C@@H]2O[C@@H](CO)[C@H](O)[C@@H](O)[C@@H]2NC)[C@@H](N/C(N)=N\[H])[C@@H]1O [Streptomycin] | 8 (≈ 13.8 µM) | 1.5 | 4 (≈ 6.88 µM) |  |
| NC[C@H]1O[C@H](O[C@H]2[C@H](O)[C@@H](O[C@H]3O[C@H](CO)[C@@H](O)[C@H](N)[C@H]3O)[C@H](N)C[C@@H]2N)[C@H](O)[C@@H](O)[C@@H]1O [Kanamycin] | 0.75 (≈ 1.55 µM) | 0.016 | 0.75 (≈ 1.55 µM) |  |
| O=C(N[C@H](CO)[C@H](O)c1ccc([N+](=O)[O-])cc1)C(Cl)Cl [Chloramphenicol] | 3 (≈ 9.28 µM) | 0.016 | 1.5 (≈ 4.64 µM) |  |
| CCC[C@@H]1C[C@@H](C(=O)N[C@@H]([C@H]2O[C@H](SC)[C@H](O)[C@@H](O)[C@H]2O)[C@H](C)Cl)N(C)C1 [Clindamycin] | 1 (≈ 2.35 µM) | 0.016 | 0.5 (≈ 1.18 µM) |  |
